Data from patent US20180099931A1 (AbbVie S.à.r.l., priority 2016, published 2018).
pEC50: −log10 of the molar value. Like-named read-outs stand apart in the source and are kept apart here.

Target: T1, F508delCFTR (Homo sapiens, UniProt P13569, DEL508-508)
T1 construct: expressed in transfected cells; host or cells: CFBE41o- human lung-derived epithelial cells (CFBE4lo-F508delCFTR-HRP), doxycycline-inducible
Assay: Cell Surface Expression-Horse Radish Peroxidase (CSE-HRP) Assay;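 for Maximum % activity (with co-corrector): co-corrector and positive control are both the same reference corrector at 2 µM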;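 for Maximum % activity (without co-corrector): percent of the 2 µM on-plate positive control corrector response above DMSO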
Assay type: cell-based
Conditions: for Maximum % activity (with co-corrector): with co-corrector (2 μM); for Maximum % activity (with co-corrector) / Emax: maximum at any tested concentration, normalized to on-plate positive control; for Emax: without co-corrector, read-out: Maximum % activity (without co-corrector)

[1] = test compound without co-corrector, read-out: EC50 (without co-corrector)
[2] = with co-corrector (2 μM of 3-[(2R,4R)-4-({[1-(2,2-difluoro-1,3-benzodioxol-5-yl)cyclopropyl]carbonyl}amino)-7-methoxy-3,4-dihydro-2H-chromen-2-yl]benzoic acid), read-out: EC50 (with co-corrector)
[3] = CSE-HRP, test compound without co-corrector, read-out: EC50 (without co-corrector)
[4] = CSE-HRP, with co-corrector (2 μM of 3-[(2R,4R)-4-({[1-(2,2-difluoro-1,3-benzodioxol-5-yl)cyclopropyl]carbonyl}amino)-7-methoxy-3,4-dihydro-2H-chromen-2-yl]benzoic acid), read-out: EC50 (with co-corrector)

T1 sequence (P13569 with tags, fused parts or gaps DEL508-508): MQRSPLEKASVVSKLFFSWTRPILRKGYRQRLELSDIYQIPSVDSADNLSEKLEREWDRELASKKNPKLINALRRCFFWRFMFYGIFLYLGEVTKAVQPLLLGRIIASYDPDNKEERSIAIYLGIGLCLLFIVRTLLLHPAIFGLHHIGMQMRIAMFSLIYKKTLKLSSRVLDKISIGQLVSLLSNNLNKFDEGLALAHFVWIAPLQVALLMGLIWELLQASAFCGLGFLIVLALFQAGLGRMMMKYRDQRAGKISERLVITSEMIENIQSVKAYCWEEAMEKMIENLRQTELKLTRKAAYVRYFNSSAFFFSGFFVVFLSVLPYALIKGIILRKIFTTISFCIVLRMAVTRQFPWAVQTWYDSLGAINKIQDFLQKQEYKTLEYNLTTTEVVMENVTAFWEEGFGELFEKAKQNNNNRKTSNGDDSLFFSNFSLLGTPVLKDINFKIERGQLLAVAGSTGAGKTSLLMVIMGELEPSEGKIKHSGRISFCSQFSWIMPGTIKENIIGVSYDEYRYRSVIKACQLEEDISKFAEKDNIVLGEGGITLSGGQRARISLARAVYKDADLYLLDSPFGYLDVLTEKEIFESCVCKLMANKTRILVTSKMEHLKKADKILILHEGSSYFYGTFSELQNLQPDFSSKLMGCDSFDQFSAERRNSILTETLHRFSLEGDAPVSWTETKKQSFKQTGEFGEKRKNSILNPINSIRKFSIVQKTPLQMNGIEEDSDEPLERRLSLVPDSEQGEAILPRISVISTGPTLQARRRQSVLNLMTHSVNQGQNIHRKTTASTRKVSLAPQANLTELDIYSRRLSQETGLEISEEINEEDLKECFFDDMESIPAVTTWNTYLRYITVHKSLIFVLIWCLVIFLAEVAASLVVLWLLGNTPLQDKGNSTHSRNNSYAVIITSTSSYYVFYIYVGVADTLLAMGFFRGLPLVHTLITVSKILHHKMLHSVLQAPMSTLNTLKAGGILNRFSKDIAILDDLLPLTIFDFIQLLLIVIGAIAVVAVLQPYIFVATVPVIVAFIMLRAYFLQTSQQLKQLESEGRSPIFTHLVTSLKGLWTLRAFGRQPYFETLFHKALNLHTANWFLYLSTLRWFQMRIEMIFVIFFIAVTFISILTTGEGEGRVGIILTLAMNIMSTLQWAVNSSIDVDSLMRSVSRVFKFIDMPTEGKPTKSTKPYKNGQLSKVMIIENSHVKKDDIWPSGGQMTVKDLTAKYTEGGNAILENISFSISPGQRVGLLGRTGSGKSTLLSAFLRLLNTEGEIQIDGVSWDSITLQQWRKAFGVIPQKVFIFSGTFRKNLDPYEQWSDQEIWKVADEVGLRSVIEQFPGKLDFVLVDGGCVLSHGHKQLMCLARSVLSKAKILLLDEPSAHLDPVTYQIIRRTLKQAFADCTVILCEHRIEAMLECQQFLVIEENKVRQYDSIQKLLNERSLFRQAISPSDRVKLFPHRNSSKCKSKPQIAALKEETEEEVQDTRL

## COc1nc(C(C)(C)C)ccc1CN[C@H]1[C@H](C(C)(C)C)[C@@H](C(=O)O)N(C(=O)OC(C)C)[C@H]1c1cccnc1OC [Example I-234]
[1]
  pEC50: 5.00 to 6.00
[2]
  pEC50: > 6.00
  Maximum % activity (with co-corrector): +++ (≥350)
  Emax: 100 to 200%

## COc1nc(C(C)(C)C)ccc1CN[C@H]1[C@H](C(C)(C)C)[C@@H](C(=O)O)N(C(=O)[C@@H]2CCCCO2)[C@H]1c1cccnc1N(C)C [Example I-235]
[1]
  pEC50: 5.00 to 6.00
[2]
  pEC50: > 6.00
  Maximum % activity (with co-corrector): +++ (≥350)
  Emax: 100 to 200%

## COc1ncc(C2CCC2)cc1CN[C@H]1[C@H](C23CC(C2)C3)[C@@H](C(=O)O)N(C(=O)OC(C)C)[C@H]1c1ccccc1 [Example I-236]
[1]
  pEC50: 5.00 to 6.00
[2]
  pEC50: 5.00 to 6.00
  Maximum % activity (with co-corrector): +++ (≥350)
  Emax: 100 to 200%

## COc1ncc(C2CCC2)cc1CN[C@H]1[C@H](C(C)(C)C)[C@@H](C(=O)O)N(C(=O)C2CCCCC2)[C@H]1c1cccnc1OC [Example I-237]
[1]
  pEC50: 5.00 to 6.00
[2]
  pEC50: 5.00 to 6.00
  Maximum % activity (with co-corrector): +++ (≥350)
  Emax: 100 to 200%

## COc1ccc(C2(C)CCC2)cc1CN[C@H]1[C@H](C(C)(C)C)[C@@H](C(=O)O)N(C(=O)C2CCCCC2)[C@H]1c1cccnc1OC [Example I-238]
[1]
  pEC50: 5.00 to 6.00
[2]
  pEC50: > 6.00
  Maximum % activity (with co-corrector): +++ (≥350)
  Emax: > 200%

## COc1ccc(C(C)(C)C)cc1CN[C@H]1[C@H](C(C)(C)C)[C@@H](C(=O)O)N(C(=O)[C@H](C)c2ccccc2)[C@H]1c1cccnc1OC [Example I-239]
[1]
  pEC50: 5.00 to 6.00
[2]
  pEC50: 5.00 to 6.00
  Maximum % activity (with co-corrector): +++ (≥350)
  Emax: 100 to 200%

## COc1ncc(C(F)(F)F)cc1CN[C@H]1[C@H](C(C)(C)C)[C@@H](C(=O)O)N(C(=O)[C@H](C)c2ccccc2)[C@H]1c1cccnc1OC [Example I-240]
[1]
  pEC50: 5.00 to 6.00
[2]
  pEC50: 5.00 to 6.00
  Maximum % activity (with co-corrector): +++ (≥350)
  Emax: < 100%

## COc1nc(C2CCC2)ccc1CN[C@H]1[C@H](C(C)(C)C)[C@@H](C(=O)O)N(C(=O)C2CCCCC2)[C@H]1c1ccccc1 [Example I-242]
[1]
  pEC50: 5.00 to 6.00
[2]
  pEC50: 5.00 to 6.00
  Maximum % activity (with co-corrector): +++ (≥350)
  Emax: 100 to 200%

## COc1ncc(C2CCC2)cc1CN[C@H]1[C@H](C(C)(C)C)[C@@H](C(=O)O)N(C(=O)C2C3CCCC32)[C@H]1c1cccnc1OC (some centres unmarked) [Example I-243]
[1]
  pEC50: 5.00 to 6.00
[2]
  pEC50: 5.00 to 6.00
  Maximum % activity (with co-corrector): +++ (≥350)
  Emax: 100 to 200%

## COc1ccc(C(C)(C)C)cc1CN[C@H]1[C@H](C(C)(C)C)[C@@H](C(=O)O)N(C(=O)OC2COC2)[C@H]1c1ccccc1 [Example I-244, (2S,3S,4S,5S)-3-tert-butyl-4-{[(5-tert-butyl-2-methoxyphenyl)methyl]amino}-1-{[(oxetan-3-yl)oxy]carbonyl}-5-phenylpyrrolidine-2-carboxylic acid]
[1]
  pEC50: 5.00 to 6.00
[2]
  pEC50: 5.00 to 6.00
  Maximum % activity (with co-corrector): +++ (≥350)
  Emax: 100 to 200%

## COc1ccc(S(F)(F)(F)(F)F)cc1CN[C@H]1[C@H](C(C)(C)C)[C@@H](C(=O)O)N(C(=O)OC(C)C)[C@H]1c1cccnc1N(C)C [Example I-245]
[1]
  pEC50: 5.00 to 6.00
[2]
  pEC50: 5.00 to 6.00
  Maximum % activity (with co-corrector): +++ (≥350)
  Emax: > 200%

## COc1ccc(C(C)(C)C)cc1CN[C@H]1[C@H](C(C)(C)C)[C@@H](C(=O)O)N(C(=O)[C@@H]2CCCN(C(=O)OC(C)C)C2)[C@H]1c1ccccc1 [Example I-246, (2S,3S,4S,5S)-3-tert-butyl-4-{[(5-tert-butyl-2-methoxyphenyl)methyl]amino}-5-phenyl-1-[(3R)-1-{[(propan-2-yl)oxy]carbonyl}piperidine-3-carbonyl]pyrrolidine-2-carboxylic acid]
[1]
  pEC50: 5.00 to 6.00
[2]
  pEC50: 5.00 to 6.00
  Maximum % activity (with co-corrector): +++ (≥350)
  Emax: > 200%

## CC(C)(C)c1ccc(CN[C@H]2[C@H](C(C)(C)C)[C@@H](C(=O)O)N(C(=O)[C@@H]3CCCC(F)(F)C3)[C@H]2c2ccccc2)c(Cl)n1 [Example I-247]
[1]
  pEC50: 5.00 to 6.00
[2]
  pEC50: 5.00 to 6.00
  Maximum % activity (with co-corrector): +++ (≥350)
  Emax: < 100%

## COc1ccc(C(C)(C)C)cc1CN[C@H]1[C@H](C(C)(C)C)[C@@H](C(=O)O)N(C(=O)C2(c3ccccc3)CC2)[C@H]1c1cccnc1OC [Example I-248]
[1]
  pEC50: 5.00 to 6.00
[2]
  pEC50: 5.00 to 6.00
  Maximum % activity (with co-corrector): +++ (≥350)
  Emax: 100 to 200%

## COc1nc2ccccc2cc1CN[C@H]1[C@H](C(C)(C)C)[C@@H](C(=O)O)N(C(=O)OC(C)C)[C@H]1c1ccccc1C(C)C [Example I-250]
[3]
  pEC50: 5.00 to 6.00
[4]
  pEC50: > 6.00
CSE-HRP
  Maximum % activity (with co-corrector): +++ (≥350)
  Emax: > 200%

## COc1cc2c(cc1CN[C@H]1[C@H](C(C)(C)C)[C@@H](C(=O)O)N(C(=O)OC(C)C)[C@H]1c1cccnc1N(C)C)C(C)(C)CCC2(C)C [Example I-251]
[3]
  pEC50: 5.00 to 6.00
[4]
  pEC50: 5.00 to 6.00
CSE-HRP
  Maximum % activity (with co-corrector): +++ (≥350)
  Emax: 100 to 200%

## COc1ccc(C(F)(F)F)cc1CN[C@H]1[C@H](C(C)(C)C)[C@@H](C(=O)O)N(C(=O)OC(C)C)[C@H]1c1cccc(Cl)c1 [Example I-252]
[3]
  pEC50: 5.00 to 6.00
[4]
  pEC50: 5.00 to 6.00
CSE-HRP
  Maximum % activity (with co-corrector): +++ (≥350)
  Emax: > 200%

## CC[C@H](C(=O)N1[C@H](C(=O)O)[C@@H](C(C)(C)C)[C@H](NCc2cc(C(C)(C)C)ccc2OC)[C@@H]1c1cccnc1OC)c1ccccc1 [Example I-253]
[3]
  pEC50: 5.00 to 6.00
[4]
  pEC50: 5.00 to 6.00
CSE-HRP
  Maximum % activity (with co-corrector): +++ (≥350)
  Emax: 100 to 200%

## COc1ccc(C(C)(C)C)cc1CN[C@H]1[C@H](C(C)(C)C)[C@@H](C(=O)O)N(C(=O)[C@@]2(C)COc3cc4c(cc32)OC(F)(F)O4)[C@H]1c1cccnc1OC [Example I-254]
[3]
  pEC50: 5.00 to 6.00
[4]
  pEC50: 5.00 to 6.00
CSE-HRP
  Maximum % activity (with co-corrector): +++ (≥350)
  Emax: < 100%

## COc1cc(C(F)(F)F)ccc1CN[C@H]1[C@H](C(C)(C)C)[C@@H](C(=O)O)N(C(=O)[C@@H]2CCC[C@@H](OC)C2)[C@H]1c1ccccc1 [Example I-255]
[3]
  pEC50: 5.00 to 6.00
[4]
  pEC50: 5.00 to 6.00
CSE-HRP
  Maximum % activity (with co-corrector): +++ (≥350)
  Emax: < 100%

## COc1ncc(C(F)(F)F)cc1CN[C@H]1[C@H](C(C)(C)C)[C@@H](C(=O)O)N(C(=O)C2CCCCC2)[C@H]1c1ccccc1C [Example I-258]
[3]
  pEC50: > 6.00
[4]
  pEC50: > 6.00
CSE-HRP
  Maximum % activity (with co-corrector): +++ (≥350)
  Emax: 100 to 200%

## COc1ccc(C(C)(C)C)cc1CN[C@H]1[C@H](C(C)(C)C)[C@@H](C(=O)O)N(C(=O)[C@@H]2CCCO2)[C@H]1c1ccccc1C [Example I-261]
[3]
  pEC50: 5.00 to 6.00
[4]
  pEC50: 5.00 to 6.00
CSE-HRP
  Maximum % activity (with co-corrector): +++ (≥350)
  Emax: > 200%

## COc1ncc(C(F)(F)F)cc1CN[C@H]1[C@H](C(C)(C)C)[C@@H](C(=O)O)N(C(=O)[C@@H]2CCCO2)[C@H]1c1ccccc1C [Example I-262]
[3]
  pEC50: 5.00 to 6.00
[4]
  pEC50: 5.00 to 6.00
CSE-HRP
  Maximum % activity (with co-corrector): +++ (≥350)
  Emax: > 200%

## CC(C)OC(=O)N1[C@H](C(=O)O)[C@@H](C(C)(C)C)[C@H](NCCc2ccccc2)[C@@H]1c1ccccc1 [Example I-263]
[3]
  pEC50: 5.00 to 6.00
[4]
  pEC50: 5.00 to 6.00
CSE-HRP
  Maximum % activity (with co-corrector): ++ (≥150 and <350)
  Emax: < 100%

## CC(C)OC(=O)N1[C@H](C(=O)O)[C@@H](C(C)(C)C)[C@H](NCC(C)(C)c2ccccc2)[C@@H]1c1ccccc1 [Example I-264]
[3]
  pEC50: 5.00 to 6.00
[4]
  pEC50: 5.00 to 6.00
CSE-HRP
  Maximum % activity (with co-corrector): ++ (≥150 and <350)
  Emax: < 100%

## COc1ncc(C2CCC2)cc1CN[C@H]1[C@H](C(C)(C)C)[C@@H](C(=O)O)N(C(=O)[C@@H]2CCCO2)[C@H]1c1ccccc1C [Example I-265]
[3]
  pEC50: 5.00 to 6.00
[4]
  pEC50: 5.00 to 6.00
CSE-HRP
  Maximum % activity (with co-corrector): +++ (≥350)
  Emax: > 200%
